# Assay results published in ChEMBL document CHEMBL2321869, “Ion channels as therapeutic targets: a drug discovery perspective” (J Med Chem, 2013).
# Assays:
# Glutamate receptor 1 = Glutamate receptor 1 (Homo sapiens, UniProt P42261); assay: Agonist activity at GluA1 (unknown origin)
# [1] = target: T1, Sodium channel protein type 2 subunit alpha (Homo sapiens, UniProt Q99250); assay: Inhibition of human voltage-gated Na channel 1.2 by cell based patch clamp technique
# [2] = target: T2, Sodium channel protein type 9 subunit alpha (Homo sapiens, UniProt Q15858); assay: Inhibition of human voltage-gated Na channel 1.7 by cell based patch clamp technique
# T2 sequence (Q15858 whole entry): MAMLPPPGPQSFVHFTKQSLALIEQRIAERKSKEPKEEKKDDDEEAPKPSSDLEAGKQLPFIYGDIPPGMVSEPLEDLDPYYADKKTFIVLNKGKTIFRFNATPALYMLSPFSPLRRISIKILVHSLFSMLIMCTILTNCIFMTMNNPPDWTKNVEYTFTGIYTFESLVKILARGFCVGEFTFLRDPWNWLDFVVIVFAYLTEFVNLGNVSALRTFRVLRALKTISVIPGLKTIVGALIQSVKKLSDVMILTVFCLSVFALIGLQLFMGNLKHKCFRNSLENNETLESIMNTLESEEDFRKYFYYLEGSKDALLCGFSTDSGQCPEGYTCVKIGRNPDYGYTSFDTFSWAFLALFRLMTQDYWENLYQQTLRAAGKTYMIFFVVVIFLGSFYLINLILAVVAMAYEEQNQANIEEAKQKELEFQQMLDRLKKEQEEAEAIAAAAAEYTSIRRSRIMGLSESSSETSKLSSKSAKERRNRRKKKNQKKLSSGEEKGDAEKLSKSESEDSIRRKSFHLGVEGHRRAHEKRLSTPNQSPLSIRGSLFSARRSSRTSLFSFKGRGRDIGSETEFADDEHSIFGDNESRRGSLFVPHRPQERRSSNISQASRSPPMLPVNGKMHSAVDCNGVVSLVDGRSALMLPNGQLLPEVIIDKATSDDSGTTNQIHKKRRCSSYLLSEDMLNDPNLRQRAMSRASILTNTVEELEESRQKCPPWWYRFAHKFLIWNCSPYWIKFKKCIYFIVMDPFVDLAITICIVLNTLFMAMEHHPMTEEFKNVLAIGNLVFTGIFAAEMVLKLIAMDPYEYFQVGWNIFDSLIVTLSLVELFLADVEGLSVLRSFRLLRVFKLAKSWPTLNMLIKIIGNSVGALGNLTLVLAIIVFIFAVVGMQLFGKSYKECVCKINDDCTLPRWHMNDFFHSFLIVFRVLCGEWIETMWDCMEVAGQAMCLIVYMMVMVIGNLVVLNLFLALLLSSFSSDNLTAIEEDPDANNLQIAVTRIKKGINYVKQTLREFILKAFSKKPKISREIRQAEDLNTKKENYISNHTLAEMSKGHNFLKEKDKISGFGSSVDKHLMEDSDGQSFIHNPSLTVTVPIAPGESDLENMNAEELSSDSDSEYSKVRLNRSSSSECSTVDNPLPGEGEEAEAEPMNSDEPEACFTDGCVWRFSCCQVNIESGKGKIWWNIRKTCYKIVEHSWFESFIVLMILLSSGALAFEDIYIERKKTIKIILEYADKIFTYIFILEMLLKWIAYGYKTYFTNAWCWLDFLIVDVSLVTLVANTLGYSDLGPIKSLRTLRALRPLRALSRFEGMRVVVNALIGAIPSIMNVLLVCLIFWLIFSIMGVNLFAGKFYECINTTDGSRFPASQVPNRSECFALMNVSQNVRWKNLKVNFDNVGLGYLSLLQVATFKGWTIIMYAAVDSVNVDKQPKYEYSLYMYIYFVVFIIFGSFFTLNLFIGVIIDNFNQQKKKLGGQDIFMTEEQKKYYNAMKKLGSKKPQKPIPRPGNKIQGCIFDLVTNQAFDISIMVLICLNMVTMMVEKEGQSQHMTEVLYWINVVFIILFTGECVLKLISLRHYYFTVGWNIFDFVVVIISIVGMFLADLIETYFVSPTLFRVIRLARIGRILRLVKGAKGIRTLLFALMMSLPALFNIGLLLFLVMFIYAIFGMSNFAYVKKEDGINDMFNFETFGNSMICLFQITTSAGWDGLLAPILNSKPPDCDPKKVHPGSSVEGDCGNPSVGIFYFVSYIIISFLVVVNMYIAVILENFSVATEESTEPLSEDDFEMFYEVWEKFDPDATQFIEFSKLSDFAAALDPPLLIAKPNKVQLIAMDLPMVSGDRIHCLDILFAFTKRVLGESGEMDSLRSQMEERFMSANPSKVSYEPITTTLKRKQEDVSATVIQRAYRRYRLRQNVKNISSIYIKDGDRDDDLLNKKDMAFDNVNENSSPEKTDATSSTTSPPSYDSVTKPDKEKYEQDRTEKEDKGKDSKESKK
# [3] = target: Sodium channel protein type 5 subunit alpha (Homo sapiens, UniProt Q14524); assay: Inhibition of human voltage-gated Na channel 1.5 by cell based patch clamp technique
# [4] = target: Sodium channel protein type 10 subunit alpha (Rattus norvegicus, UniProt Q62968); assay: Binding affinity to voltage-gated Na channel 1.8 in Sprague-Dawley rat L4/L5 DRG neurons by patch-clamp technique
# [5] = target: T2, Sodium channel protein type 9 subunit alpha; assay: Binding affinity to human inactivated voltage-gated Na channel 1.7 expressed in HEK293 cells by patch-clamp technique; format: cell-based
# [6] = target: T3, Sodium channel protein type 3 subunit alpha (Rattus norvegicus, UniProt P08104); assay: Binding affinity to rat inactivated voltage-gated Na channel 1.3 expressed in human HEK293 cells by patch-clamp technique; format: cell-based
# T3 sequence (P08104 whole entry): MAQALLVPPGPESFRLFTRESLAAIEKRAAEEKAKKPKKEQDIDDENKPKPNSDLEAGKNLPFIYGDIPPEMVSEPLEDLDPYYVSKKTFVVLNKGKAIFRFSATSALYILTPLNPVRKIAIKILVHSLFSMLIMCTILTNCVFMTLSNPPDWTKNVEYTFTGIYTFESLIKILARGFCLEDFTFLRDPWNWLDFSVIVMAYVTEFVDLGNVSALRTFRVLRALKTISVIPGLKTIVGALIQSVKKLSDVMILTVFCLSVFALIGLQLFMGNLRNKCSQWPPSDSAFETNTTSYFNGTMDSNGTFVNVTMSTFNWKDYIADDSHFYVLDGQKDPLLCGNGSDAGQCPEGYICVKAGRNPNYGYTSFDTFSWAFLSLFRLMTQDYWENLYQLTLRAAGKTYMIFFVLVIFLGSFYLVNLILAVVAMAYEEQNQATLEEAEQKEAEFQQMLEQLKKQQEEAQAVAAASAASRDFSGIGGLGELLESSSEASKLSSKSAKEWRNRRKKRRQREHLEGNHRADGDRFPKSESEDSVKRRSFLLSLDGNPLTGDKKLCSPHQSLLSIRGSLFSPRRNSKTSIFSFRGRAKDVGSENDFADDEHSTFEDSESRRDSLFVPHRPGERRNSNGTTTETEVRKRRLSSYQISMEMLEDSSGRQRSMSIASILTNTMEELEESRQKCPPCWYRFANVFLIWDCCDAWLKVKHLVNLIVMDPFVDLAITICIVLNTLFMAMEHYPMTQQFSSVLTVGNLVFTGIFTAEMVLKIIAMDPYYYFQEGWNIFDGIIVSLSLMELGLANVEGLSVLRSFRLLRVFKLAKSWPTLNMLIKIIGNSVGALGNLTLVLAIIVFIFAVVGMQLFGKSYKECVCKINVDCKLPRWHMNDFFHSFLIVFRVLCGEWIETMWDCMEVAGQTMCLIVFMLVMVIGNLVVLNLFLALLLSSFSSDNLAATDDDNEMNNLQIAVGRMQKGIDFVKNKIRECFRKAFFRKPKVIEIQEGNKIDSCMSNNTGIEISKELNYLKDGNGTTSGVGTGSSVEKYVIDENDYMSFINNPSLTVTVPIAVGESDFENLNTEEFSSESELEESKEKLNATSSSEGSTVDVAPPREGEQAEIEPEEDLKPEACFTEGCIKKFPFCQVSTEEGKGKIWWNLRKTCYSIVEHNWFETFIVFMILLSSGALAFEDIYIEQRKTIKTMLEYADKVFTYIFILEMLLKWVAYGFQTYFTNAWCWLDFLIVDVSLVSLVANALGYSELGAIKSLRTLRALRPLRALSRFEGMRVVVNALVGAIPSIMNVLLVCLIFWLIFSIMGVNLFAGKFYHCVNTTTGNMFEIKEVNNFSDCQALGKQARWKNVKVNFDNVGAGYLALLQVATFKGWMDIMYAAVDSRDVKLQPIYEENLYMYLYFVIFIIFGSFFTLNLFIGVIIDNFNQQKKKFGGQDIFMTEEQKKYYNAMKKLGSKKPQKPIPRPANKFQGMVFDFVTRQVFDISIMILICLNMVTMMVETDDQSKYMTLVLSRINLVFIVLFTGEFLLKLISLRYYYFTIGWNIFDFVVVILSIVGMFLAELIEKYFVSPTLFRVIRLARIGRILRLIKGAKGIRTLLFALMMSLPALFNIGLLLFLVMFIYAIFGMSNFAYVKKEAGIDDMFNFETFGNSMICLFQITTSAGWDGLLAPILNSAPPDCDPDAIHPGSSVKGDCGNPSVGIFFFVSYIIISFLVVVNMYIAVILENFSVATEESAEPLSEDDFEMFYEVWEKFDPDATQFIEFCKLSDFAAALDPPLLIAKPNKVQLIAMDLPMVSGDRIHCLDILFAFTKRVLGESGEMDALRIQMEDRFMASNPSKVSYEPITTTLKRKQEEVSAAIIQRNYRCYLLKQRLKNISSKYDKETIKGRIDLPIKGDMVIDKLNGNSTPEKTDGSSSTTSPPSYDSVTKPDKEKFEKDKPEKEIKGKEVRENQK
# [7] = target: T3, Sodium channel protein type 3 subunit alpha; assay: Inhibition of rat voltage-gated Na channel 1.3 in dorsal root ganglion neurons by patch clamp technique; format: tissue-based
# [8] = target: Sodium channel protein type 1 subunit alpha (Rattus norvegicus, UniProt P04774); assay: Inhibition of rat voltage-gated Na channel 1.1 in dorsal root ganglion neurons by patch clamp technique; format: tissue-based
# [9] = target: GABA-A receptor; alpha-3/beta-3/gamma-2 (Homo sapiens, UniProt P18507+P28472+P34903); assay: Modulation of human GABAA alpha3beta3gamma2 expressed in xenopus oocytes assessed as potentiation of GABA-evoked chloride currents; format: cell-based, Oocyte
# [10] = target: GABA-A receptor; alpha-2/beta-3/gamma-2 (Homo sapiens, UniProt P18507+P28472+P47869); assay: Modulation of human GABAA alpha2beta3gamma2 expressed in xenopus oocytes assessed as potentiation of GABA-evoked chloride currents; format: cell-based, Oocyte
# [11] = target: GABA-A receptor; alpha-1/beta-2/gamma-2 (Homo sapiens, UniProt P14867+P18507+P47870); assay: Modulation of human GABA-A alpha1beta2gamma2 expressed in xenopus oocytes assessed as potentiation of GABA-evoked chloride currents; format: cell-based, Oocyte
# [12] = target: Gamma-aminobutyric acid receptor subunit alpha-5/beta-3/gamma-3 (Homo sapiens, UniProt P28472+P31644+Q99928); assay: Modulation of human GABAA alpha5beta3gamma3 expressed in xenopus oocytes assessed as potentiation of GABA-evoked chloride currents; format: cell-based, Oocyte
# [13] = target: Potassium voltage-gated channel subfamily KQT member 1 (Homo sapiens, UniProt P51787); assay: Inhibition of voltage-gated K channel 7.1 (unknown origin)
# [14] = target: Potassium voltage-gated channel subfamily A member 5 (Homo sapiens, UniProt P22460); assay: Inhibition of voltage-gated K channel 1.5 (unknown origin)
# Potassium voltage-gated channel subfamily A member 5, sequence (P22460 whole entry): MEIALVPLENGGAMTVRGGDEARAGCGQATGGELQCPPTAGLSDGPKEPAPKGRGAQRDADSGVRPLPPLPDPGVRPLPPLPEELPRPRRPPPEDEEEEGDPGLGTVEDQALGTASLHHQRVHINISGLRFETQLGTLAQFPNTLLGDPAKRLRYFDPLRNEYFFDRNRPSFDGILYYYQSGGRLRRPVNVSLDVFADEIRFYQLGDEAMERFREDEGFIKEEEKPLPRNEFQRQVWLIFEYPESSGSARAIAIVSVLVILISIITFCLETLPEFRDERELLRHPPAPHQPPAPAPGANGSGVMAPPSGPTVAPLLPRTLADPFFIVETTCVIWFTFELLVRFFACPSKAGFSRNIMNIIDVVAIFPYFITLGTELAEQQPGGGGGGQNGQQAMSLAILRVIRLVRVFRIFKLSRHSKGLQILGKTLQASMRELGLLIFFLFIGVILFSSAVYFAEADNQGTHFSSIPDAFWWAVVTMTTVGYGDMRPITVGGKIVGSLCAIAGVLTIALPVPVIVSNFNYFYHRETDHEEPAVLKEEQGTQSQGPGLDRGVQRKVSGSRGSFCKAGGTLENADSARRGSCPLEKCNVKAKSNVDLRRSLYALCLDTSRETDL
# [15] = target: Voltage-gated inwardly rectifying potassium channel KCNH2 (Homo sapiens, UniProt Q12809); assay: Inhibition of human ERG channel
# [16] = target: T2, Sodium channel protein type 9 subunit alpha; assay: Inhibition of voltage-gated Na channel 1.7 (unknown origin)
# [17] = target: Sodium channel protein type 8 subunit alpha (Homo sapiens, UniProt Q9UQD0); assay: Inhibition of voltage-gated Na channel 1.6 (unknown origin)
# [18] = target: Sodium channel protein type 4 subunit alpha (Homo sapiens, UniProt P35499); assay: Inhibition of voltage-gated Na channel 1.4 (unknown origin)
# [19] = target: T1, Sodium channel protein type 2 subunit alpha; assay: Inhibition of voltage-gated Na channel 1.2 (unknown origin)
# [20] = target: Sodium channel protein type 3 subunit alpha (Homo sapiens, UniProt Q9NY46); assay: Inhibition of voltage-gated Na channel 1.3 (unknown origin)
# [21] = target: Sodium channel protein type 1 subunit alpha (Homo sapiens, UniProt P35498); assay: Inhibition of voltage-gated Na channel 1.1 (unknown origin)
smiles,measurement,setting,value
N[C@@H](C[C@@H](C/C=C/c1ccc2ccccc2c1)C(=O)O)C(=O)O,EC50,Glutamate receptor 1,> 300000 nM
COc1cnc(-c2cccc3c2C[C@H](NC(=O)c2ccc(COCC(F)(F)F)nc2)CO3)cn1,IC50,[1],> 33000 nM
same,IC50,[2],66 nM
same,IC50,[3],13000 nM
COC[C@@H](NC(C)=O)C(=O)NCc1ccccc1 [LACOSAMIDE],IC50,[4],16000 nM
same,IC50,[5],182 nM
same,IC50,[6],415 nM
O=C1[C@@H](N2CC[C@H](c3cc(Cl)cc(Cl)c3)C2)CCN1c1ccc(S(=O)(=O)Nc2nccs2)cc1,IC50,[7],< 2000 nM
same,IC50,[8],< 2000 nM
CCN(C(C)=O)c1cccc(-c2ccnc3c(C#N)cnn23)c1 [ZALEPLON],EC50,[9],> 1000 nM
same,EC50,[10],1630 nM
same,EC50,[11],290 nM
same,EC50,[12],> 1000 nM
NC(=O)C(c1ccccc1)(c1ccc(F)cc1)c1ccc(F)cc1 [SENICAPOC],IC50,[13],> 1000 nM
same,IC50,[14],> 1000 nM
same,IC50,[15],> 1000 nM
same,IC50,[16],> 1000 nM
same,IC50,[17],> 1000 nM
same,IC50,[18],> 1000 nM
same,IC50,[19],> 1000 nM
same,IC50,[20],> 1000 nM
same,IC50,[21],> 1000 nM
